A word on the pKi: it is the negative decadic logarithm of the Ki, by convention in mol/L. Broadly, the pIC50 is −log10 of the IC50, conventionally taken in molar units.

pIC50, pKi: −log10 of the molar value.

Assay [1] deals with T1, CRTH2 (Homo sapiens (Human), UniProt Q9Y5Y4). The experiment in a line: Radioligand binding assay ([3H]PGD2 displacement, hCRTH2 HEK293 (EBNA) cell membranes). The settings on record: 1.5 nM [3H]PGD2, 10 μg hCRTH2 HEK293 (EBNA) membrane protein, 60 min room temperature; test concentration not given. An excerpt:
Human CRTH2 cDNA was amplified by PCR using a human urinary bladder cDNA library as a template and specific primers containing HindIII and BamHI restriction sites for cloning into the pCEP4 vector (Invitrogen). The vector construction is described in detail in Sawyer et al., Br. J. Pharmocol 2002, 137, 1163-72. The nucleotide sequence of the cloned cDNA was identical the previously reported hCRTH2 sequence (Nagata et al, 1999, J. Immunol. 162, 1278-1286).
HEK293 (EBNA) cells were transfected with the pCEP4-hCRTH2 construct using the calcium phosphate technique. Cells were maintained in culture at 37° C. in an atmosphere of 5% CO2 in Dulbecco's modified Eagle's F12 medium (Invitrogen), containing 10% heat-inactivated foetal calf serum (TerraCell International, Canada), 2 mM Glutamine, 100 units/ml of penicillin and 100 μg/ml streptomycin (Invitrogen). 48 hours after the transfection, cells were grown in presence of 300 μg/ml of Hygromycin B (Invitrogen) for 4 weeks and antibiotic resistant cells were amplified for cell membrane preparation.
Adherent HEK293 (EBNA) cells expressing hCRTH2 were cultured in 225 cm^2 cell culture flasks (Corning, USA) in 30 ml of medium. After two rinses of phosphate buffered saline (PBS), cells were harvested in 10 ml of PBS containing 1 mM EDTA, centrifuged at 500×g for 5 min at 4° C. and frozen at −80° C. The pellet was re-suspended in 50 mM Tris-HCl, pH 7.4, 2 mM EDTA, 250 mM Sucrose, containing protease inhibitor cocktail tablets, (Complete EDTA-free, Roche, Germany) and incubated 30 min at 4° C. Cells were disrupted by nitrogen cavitation (Parr Instruments, USA) at 4° C. (800 p.s.i. for 30 min), and centrifuged at 500×g for 10 min at 4° C. Pellet containing nuclei and cellular debris was discarded and supernatant was centrifuged 60 min at 4° C. at 45000×g. Membrane pellet was re-suspended in storage buffer (10 mM HEPES/KOH pH 7.4, 1 mM EDTA, 250 mM sucrose, protease inhibitor cocktail tablets) using Dounce homogenization and frozen in liquid nitrogen, and stored at −80° C.
(§1) The inhibitory activity can be investigated by a radioligand binding assay (Sawyer et al., Br. J. Pharmocol 2002, 137, 1163-72). The radioligand binding assay was performed at room temperature in binding buffer (10 mM HEPES/KOH pH […], with protease inhibitor cocktail tablets), containing 1.5 nM [^3H]PGD2 (Amersham, 156 Cie/mmol), and 10 μg of hCRTH2 HEK293 (EBNA) cell membrane protein in a final volume of 100 μl in 96 well plates (Corning, USA). Non-specific binding was determined in the presence of 1 μM PGD2 (Cayman, USA). Competing pyrazine sulfonamides were diluted in dimethylsulphoxide so that the total volume of dimethylsulfoxide was kept constant at 1% dimethylsulphoxide (Me2SO). 10 μl of the pyrazine sulfonamides were added. Incubation (60 min at room temperature) was terminated by rapid filtration through 96 wells hydrophobic GF/C Unifilter plates (Whatman, USA). Filters were washed twice with 250 μl of Tris-HCl pH 7.4, 10 mM MnCl2, and residual radioligand bound to the filters was mixed to 100 μl of liquid scintillation cocktail (Optiphase Supermix, Perkin Elmer, USA) and binding activity was determined by counting residual radioligand using a 1450 Micro-beta scintillation counter (Wallac, UK).

The target of assay [2] is T1, CRTH2. The experiment in a line: Determination of Ki, equilibrium competition binding against [3H]PGD2. The settings on record: competition against [3H]PGD2; average of at least three independent dose response experiments; Ki calculated from IC50. How it is done: as §1
Ki values were determined by equilibrium competition binding experiments against [^3H]PGD2. Ki values were calculated from the formula below and represent the average of at least three independent dose response experiments. The Ki values give the ligand concentrations necessary to inhibit 50% of the binding of 3[H]PGD2 to CRTH2. Ki=IC50/(1+[Concentration of Ligand]/Kd)]
All experiments were performed in 96 well plates, in a final volume of 100 μl according to the above described filtration assay. The concentration of membranes and 3[H]PGD2, as well as the positive and negative controls were identical to the conditions described above.

Assay [3] addresses T1, CRTH2. The experiment in a line: [35S]GTPγS binding assay. Format: biochemical. The conditions noted are these: inhibition of [35S]GTPγS binding, membranes expressing hCRTH2, 80 nM PGD2 (antagonist activity). How it is done: The [^35S]GTPγS assay measures the increase in guanine nucleotide exchange at G-proteins in cell membranes, resulting from agonist (PGD2) binding to CRTH2. This process can be monitored in vitro by incubating cell membranes containing G-proteins and CRTH2 with GDP and [^35S]GTPγS, a radiolabeled, hydrolysis-resistant analogue of GTP (see, Harrison et al., Life Sciences 74, 489-508, 2003). The addition of a pyrazine sulfonamide results in binding to CRTH2 and thus in an inhibition of agonist binding, which can be monitored as inhibition of the stimulation of GTP/GDP exchange.
Assay conditions were identical to conditions of radioligand binding assay as described in Example 21. The [^35S]GTPγS binding assay was performed at 30° C. with gentle agitation in 96-well scintillating white polystyrene plates (Perkin Elmer, USA), in a final volume of 200 μl, containing 2% of dimethylsulphoxide (Me2SO). The 2,3 substituted pyrazine sulfonamides were incubated in 20 mM HEPES/KOH pH 7.4, 1 mM MgCl2, 10 μg/ml Saponin, 3 μM GDP, 150 mM NaCl containing 10 μg of membranes expressing the hCRTH2 receptor (Euroscreen, Belgium) for 10 min. Non-specific binding was determined in the presence of 10 μM of GTPγS. Samples were incubated for 30 min in the presence of increasing concentrations of PGD2 for the determination of agonist activity, or with 80 nM of PGD2 for determination of antagonist activity, respectively. 0.15 nM of [^35S]GTPγS were subsequently added to each sample and after incubation of 30 min reactions were stopped by centrifugation at 1000×g, at 4° C. for 10 min. Supernatant was removed and [^35S]GTPγS binding was determined using a 1450 Micro-beta scintillation counter. Data were analysed using “Prism” (GraphPad Software, Inc. San Diego, USA). The determination of the IC50 values (i.e. the amount necessary to achieve 50% inhibition of binding (in μM)) were performed in 96 well plates, in a final volume of 100 μl according to the above described filtration assay. […]

T1 sequence (Q9Y5Y4 whole entry): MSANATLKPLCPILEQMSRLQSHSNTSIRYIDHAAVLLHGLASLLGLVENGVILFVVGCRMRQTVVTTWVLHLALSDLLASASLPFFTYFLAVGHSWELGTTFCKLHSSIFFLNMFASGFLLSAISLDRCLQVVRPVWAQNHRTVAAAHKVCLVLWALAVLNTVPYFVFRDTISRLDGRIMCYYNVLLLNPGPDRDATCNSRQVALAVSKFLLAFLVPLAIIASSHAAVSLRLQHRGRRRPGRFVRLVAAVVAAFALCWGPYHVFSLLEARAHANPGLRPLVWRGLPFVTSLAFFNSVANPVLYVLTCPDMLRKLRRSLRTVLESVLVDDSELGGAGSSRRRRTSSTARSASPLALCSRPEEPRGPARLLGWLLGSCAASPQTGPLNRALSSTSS

Turning to `O=S(=O)(Nc1nccnc1-c1ccc(Cn2ccc3ccccc32)cc1)c1ccccc1C(F)(F)F` [Compound 1, N-{3-[4-(1H-indol-1-ylmethyl)phenyl]pyrazin-2-yl}-2-(trifluoromethyl)benzene-sulfonamide], the “Inhibition hCRTH2 [%]” value in assay [1] is recorded as 94.5%. Further, the pKi in assay [2] is 6.00. In addition, the pIC50 in assay [3] was 5.72.
Take `CN(Cc1ccc(-c2nccnc2NS(=O)(=O)c2ccccc2Cl)cc1)c1ccc(OC(F)(F)F)cc1` [Compound 2, 2-chloro-N-{3-[4-({methyl[4-(trifluoromethoxy)phenyl]amino}-methyl)-phenyl]pyrazin-2-yl}benzene sulfonamide]: the “Inhibition hCRTH2 [%]” value in assay [1] is 91.5%. Moreover, in assay [2], the pKi was 5.90. For the same compound, the pIC50 in assay [3] was 5.34.
As for `CN(Cc1ccc(-c2nccnc2NS(=O)(=O)c2ccc(Cl)cc2)cc1)c1ccccc1` [Compound 15, 4-chloro-N-[3-(4-{[methyl(phenyl)amino]methyl}phenyl)pyrazin-2-yl]-benzenesulfonamide], in assay [1], the “Inhibition hCRTH2 [%]” value was 51.0%. Moreover, in assay [2], the pKi is 5.27.
The like results for `O=S(=O)(Nc1nccnc1-c1ccc(COc2ccc3c(c2)CCCC3)cc1)c1ccccc1Cl` [Compound 7, 2-chloro-N-(3-{4-[(5,6,7,8-tetrahydronaphthalen-2-yloxy)methyl]-phenyl}-pyrazin-2-yl)benzenesulfonamide] were, in that order, 80.0% and 5.59.
On to `CCc1nc2ccccc2n1Cc1ccc(-c2nccnc2NS(=O)(=O)c2ccccc2C(F)(F)F)cc1` [Compound 3, N-(3-{4-[(2-ethyl-1H-benzimidazol-1-yl)methyl]phenyl}pyrazin-2-yl)-2-(trifluoromethyl)benzenesulfonamide], for which the “Inhibition hCRTH2 [%]” value in assay [1] stood at 86.5%. Also, the pKi in assay [2] is 6.35. In addition, the pIC50 in assay [3] was 5.85.
As to `O=S(=O)(Nc1nccnc1N1CCN(Cc2ccc3ccccc3n2)CC1)c1ccc(Oc2ccccc2)cc1` [Compound 13, 4-phenoxy-N-{3-[4-(quinolin-2-ylmethyl)piperazin-1-yl]pyrazin-2-yl}-benzenesulfonamide], in assay [1], the “Inhibition hCRTH2 [%]” value is 64.5%. The pKi in assay [2] is 5.39.
In the case of `CN(Cc1ccc(-c2nccnc2NS(=O)(=O)c2cccc(Cl)c2)cc1)c1ccc(OC(F)(F)F)cc1` [Compound 11, 3-chloro-N-{3-[4-({methyl[4-(trifluoromethoxy)phenyl]amino}methyl)phenyl]pyrazin-2-yl}benzenesulfonamide], the “Inhibition hCRTH2 [%]” value in assay [1] is listed as 65.0%. Moreover, the pKi in assay [2] was 5.29.
Regarding `CN(Cc1ccc(-c2nccnc2NS(=O)(=O)c2ccc(C#N)cc2)cc1)c1ccc(OC(F)(F)F)cc1` [Compound 16, 4-cyano-N-{3-[4-({methyl[4-(trifluoromethoxy)phenyl]amino}-methyl)phenyl]pyrazin-2-yl}benzenesulfonamide], the “Inhibition hCRTH2 [%]” value in assay [1] turned out to be 47.0%. Besides, the pKi in assay [2] was 5.24.
The like results for `O=S(=O)(Nc1nccnc1-c1ccc(CNc2ccc3c(c2)OCO3)cc1)c1ccccc1C(F)(F)F` [Compound 9, N-(3-{4-[(1,3-benzodioxol-5-ylamino)methyl]phenyl}pyrazin-2-yl)-2-(trifluoromethyl)benzenesulfonamide] were, in that order, 72.5% and 5.53.

These data come from US8796280B2, “2,3-disubstituted pyrazinesulfonamides as CRTH2 inhibitors” (Merck Serono, S.A., priority 2005, dated 2014).
